Results as given in patent US20210347709A1, “RADIOFLUORINATED GPC3-BINDING PEPTIDES FOR PET IMAGING OF HEPATOCELLULAR CARCINOMA” (University of Southern California, priority 2020, published 2021).

Experiments:
[1] = In vitro biocompatibility (cell counting Kit-8 cell viability); format: cell-based; conditions: human, HepG2 cells, all concentrations 120 to 840 μg/ml
Experimental: In Vitro Biocompatibility. A colorimetric assay was utilized to determine cell viability after treating GPC3 positive HepG2 cells with the GP2076 or GP2633 peptide. The assay was carried out according to the instruction of the manufacturer. In brief, HepG2 cells were seeded at a density of 1×10^4 cells/well in a 96-well plate. After the incubation of the GP2076 or GP2633 peptide at various concentrations (0, 120, 240, 360, 480, 600, 720, and 840 μg/ml) with HepG2 cells for 24 h, the HepG2 cells were examined using the cell counting Kit-8 (KeyGen Biotech, Nanjing, China). The absorbance at 450 nm of all the wells in the 96-well microplate was recorded on a microplate reader (BIOTEK ELX800, USA). The experiment was performed in quadruplicate.

[2] = target: T1, GPC3 (Homo sapiens, UniProt P51654); assay: Binding assay by surface plasmon resonance (SPR); conditions: GPC3 protein immobilized on 3D Dextran chip
T1 construct: purchased Novoprotein, China
T1 sequence (P51654 25-554): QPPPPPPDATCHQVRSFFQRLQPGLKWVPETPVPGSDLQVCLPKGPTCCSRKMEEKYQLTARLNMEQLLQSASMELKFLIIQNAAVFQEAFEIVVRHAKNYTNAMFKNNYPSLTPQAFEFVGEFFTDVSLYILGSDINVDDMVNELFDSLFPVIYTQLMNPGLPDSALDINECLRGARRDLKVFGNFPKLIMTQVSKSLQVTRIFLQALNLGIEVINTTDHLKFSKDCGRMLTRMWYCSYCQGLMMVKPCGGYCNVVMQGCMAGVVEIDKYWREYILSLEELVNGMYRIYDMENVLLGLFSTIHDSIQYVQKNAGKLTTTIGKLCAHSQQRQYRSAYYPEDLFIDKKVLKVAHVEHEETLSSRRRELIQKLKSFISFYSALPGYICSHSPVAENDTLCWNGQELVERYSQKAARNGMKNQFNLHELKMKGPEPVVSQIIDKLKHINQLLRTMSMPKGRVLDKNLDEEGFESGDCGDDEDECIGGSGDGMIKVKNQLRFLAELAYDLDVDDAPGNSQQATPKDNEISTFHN
Experimental: Binding Assay. The binding affinity of the GP2076 or GP2633 peptide for GPC3 was determined using surface plasmon resonance (SPR) measurements (PlexArray HT A100, Plexera, USA). In brief, after the GPC3 protein (Novoprotein, China) was immobilized on a 3D Dextran chip, the GP2076 or GP2633 peptide flowed at increasing concentrations (400 nM and 800 nM). The results were analyzed by PlexeraDE software.

| Kd [2] | SMILES | viability at 24 h [1] |
| --- | --- | --- |
| 0.101 µM | CC(C)C[C@H](NC(=O)[C@H](CCCNC(=N)N)NC(=S)Nc1ccc(CC2CN(CC(=O)O)CCN(CC(=O)O)CCN2CC(=O)O)cc1)C(=O)N[C@@H](CC(N)=O)C(=O)N[C@H](C(=O)NCC(=O)NCC(=O)N[C@H](C(=O)N[C@@H](Cc1ccc(O)cc1)C(=O)N[C@@H](Cc1ccccc1)C(=O)N[C@@H](CC(C)C)C(=O)N[C@H](C(=O)N[C@H](C(=O)N[C@@H](CCCNC(=N)N)C(=O)N[C@@H](CCC(N)=O)C(=O)O)[C@@H](C)O)[C@@H](C)O)[C@@H](C)O)C(C)C (stereo partly shown) [GP2076] | > 90% |
| 0.0633 µM | CC(C)C[C@H](NC(=O)[C@H](CCCNC(=N)N)NC(=O)[C@H](CC(N)=O)NC(=O)[C@H](CC(=O)O)NC(=O)[C@H](CCCNC(=N)N)NC(=O)CNC(=O)CNC(=O)CNC(=S)Nc1ccc(CC2CN(CC(=O)O)CCN(CC(=O)O)CCN2CC(=O)O)cc1)C(=O)N[C@@H](CC(N)=O)C(=O)N[C@H](C(=O)NCC(=O)NCC(=O)N[C@H](C(=O)N[C@@H](Cc1ccc(O)cc1)C(=O)N[C@@H](Cc1ccccc1)C(=O)N[C@@H](CC(C)C)C(=O)N[C@H](C(=O)N[C@H](C(=O)N[C@@H](CCCNC(=N)N)C(=O)N[C@@H](CCC(N)=O)C(=O)O)[C@@H](C)O)[C@@H](C)O)[C@@H](C)O)C(C)C (stereo partly shown) [GP2633] | > 90% |
